{"source": "paper PMC11636681", "about": "“Pharmacokinetics and pharmacodynamics of antibacterial peptide NZX in Staphylococcus aureus mastitis mouse model” (Applied Microbiology and Biotechnology, 2024)", "key": {"three S. aureus strains": {"tested_on": "three S. aureus strains", "assay": "Mouse mastitis model, histopathological analysis and scoring of mammary tissues", "type": "in vivo", "conditions": "mice infected with the three S. aureus strains, 100 μg/gland", "excerpt": "The 7 to 8-weeks old ICR mice (80 females, 40 males) were housed in independent ventilated cages, and feed with autoclaved laboratory food and water. Female mice in heat were put into the cage of males (females:males, 2:1) overnight and checked for vaginal plugs at the following morning to induce pregnancy. ICR-lactating mice were used at 6 to 8 days after the birth of the offspring. The mouse mastitis model was established as previously described (Li et al. [2017]). Mice were randomly divided into nine groups: NC group (uninfected group), PC group (infected but without treatment), NZX groups (25, 50, 100, 200 and 400 μg/gland, respectively), lincomycin group (100 μg/gland), and ceftiofur group (100 μg/gland). Each experimental group has six independent experiments with three mice. Specially, the pups were removed 1 h before the intramammary injection of both L4 (on the left) and R4 (on the right) abdominal mammal glands. […]\nAfter mouse sacrifice, one part of mammary tissue was taken for bacterial count, and the other part was used for the histopathological analysis. […] The bacterial number on each plate was counted and the results were expressed as Log10 CFU per gram of mammary tissues. […]"}, "[1]": {"assay": "Pharmacokinetics in mouse mammary gland after intramammary administration", "type": "in vivo", "experimental": "A 0.5 g of mammary tissue or milk were weighed, homogenized, and transferred to a 10 mL polypropylene centrifuge tube, respectively, extracted sequentially by adding into a 3 mL of 0.1 M of McFarland buffer and 1% trichloroacetic acid (TCA), and cleaned by a C18 solid-phase extraction (SPE) cartridge (Oasis MAX 3 cc 60 mg and Oasis HLB 3 cc 60 mg, respectively, Waters, USA). Afterwards, a 2 mL of 45% acetonitrile with 2% formic acid and 3 mL of 45% acetonitrile were used to elute the columns, respectively, the collected eluents were freeze-dried and dissolved in 200 µL of deionized water and filtered by a […] sterile filter membrane before the analysis of high-performance liquid chromatography-ultraviolet (HPLC–UV). The HPLC–UV with a C18 reverse-phase column (ZORBAX Eclipse Plus C18 4.6 mm × 250 mm, 5 µm) conditions for detecting NZX were as follows: the mobile phase consisted of A: 0.1% trifluoroacetate […] in acetonitrile and B: 0.1%TFA in water; the injection volume was 40 μL; the wavelength of UV detector was 280 nm; flow rate was 1.0 mL/min; the column temperature was 35 °C, and the elution was conducted with a linear gradient of 20–45% mobile phase A for 16 min. The linear relationship, limits of detection (LOD), limits of quantitation (LOQ), accuracy and precision were determined by adding the known concentrations of NZX into the extracted blank matrix of mammary gland. Each concentration was conducted three times.\nA pharmacokinetic assessment of a single dose of NZX at 100 μg/gland was carried out using 36 individual healthy lactating mice following intramammary administration (Wang et al. [2021]). Mammary tissues were harvested at 0.083, 0.5, 1, 2, 3, 4, 6, 9, 12, 16, 20 and 24 h with three mice (six mammary in total) at each time point. The collected samples were then placed into 2 mL eppendorf tubes and stored at − 80 °C before the content determination of NZX in mammary gland by HPLC–UV. Briefly, a portion of the mammary gland tissues (0.5 g) was weighed in 2 mL eppendorf tubes, homogenized for 20 min (50 HZ and 4 °C) in 0.5 mL of PBS solution, and pretreated and purified by a MAX cartridge as described above. The pharmacokinetic parameters of NZX in mammary gland tissues were calculated by non-compartmental model using WinNonlin Phoenix version 8.1 (Pharsight Co., Mountain View, CA, USA)."}, "S. aureus E48": {"tested_on": "S. aureus E48", "conditions": "1 × 10^5 CFU/mL, 16–18 h, 37 °C, value marked a, already published, ref Zheng et al. [2022]; cited from earlier work", "excerpt": "Table 1 The MICs, MBCs and MPCs of NZX and antibiotics against S. aureus strains (μM) | column: S. aureus E48 / MIC"}, "S. agalactiae": {"tested_on": "S. agalactiae", "conditions": "against S. agalactiae; ref Wu et al. [2022]; cited from earlier work", "excerpt": "MPCs and PAEs were also important parameters to allow antimicrobial dosage regimens to be developed in a much more scientific approach to reduce treatment cost, and the incidences of drug resistant bacteria and avoid unnecessary drug toxicity (Mackenzie and Gould [1993])."}, "[2]": {"conditions": "mouse mammary tissue, single 100 μg/gland intramammary, healthy lactating mice, HPLC–UV, non-compartmental model"}}, "note": "Marks after values point to notes of the source that are not given here. Positions of bridges follow the written chain, without caps; N, C: chain ends. Residues, ends and D or L forms follow the SMILES beside them."}
{"molecule": "CC[C@H](C)[C@@H]1NC(=O)[C@H](CO)NC(=O)[C@H](CCCCN)NC(=O)[C@@H]2CSSC[C@@H](C(=O)N[C@@H](Cc3ccc(O)cc3)C(=O)O)NC(=O)[C@H](CCCCN)NC(=O)[C@@H]3CSSC[C@H](NC(=O)[C@H](CCC(N)=O)NC(=O)[C@H]([C@@H](C)CC)NC(=O)[C@H](CC(=O)O)NC(=O)[C@H](CC(=O)O)NC(=O)[C@H](CCC(=O)O)NC(=O)[C@H](CO)NC(=O)[C@H](Cc4c[nH]c5ccccc45)NC(=O)[C@@H]4CCCN4C(=O)CNC(=O)[C@H](CC(N)=O)NC(=O)[C@@H](NC(=O)CNC(=O)[C@H](Cc4ccccc4)NC(=O)CN)CSSC[C@H](NC(=O)[C@H](Cc4ccc(O)cc4)NC(=O)CNC(=O)CNC(=O)[C@H](CCCCN)NC(=O)[C@H](Cc4ccc(O)cc4)NC(=O)CNC(=O)[C@H](CCCCN)NC1=O)C(=O)N[C@@H](C)C(=O)N[C@@H](CCCNC(=N)N)C(=O)NCC(=O)NCC(=O)N[C@@H](Cc1ccccc1)C(=O)N[C@@H](C(C)C)C(=O)N3)C(=O)N[C@@H](Cc1c[nH]cn1)C(=O)N[C@@H](CC(N)=O)C(=O)N[C@@H](Cc1c[nH]cn1)C(=O)N2", "note": "[NZX] (H-GFGCNGPWSEDDIQCHNHCKSIKGYKGGYCARGGFVCKCY-OH; disulfide 4-30, 15-37, 19-39; N-terminus and C-terminus assumed)", "values": [{"measurement": "inflammatory symptoms of mammary tissue (H&E histology)", "setting": "three S. aureus strains; 24 h after treatment", "value": "obviously improved"}, {"measurement": "pathological scores of mammary tissues", "setting": "three S. aureus strains; compared with the PC group", "value": "significantly decreased"}, {"measurement": "AUC, area under the concentration time curve from time 0 to 24 h", "setting": "[1]; [2]", "value": 391, "unit": "µg·h/g"}, {"measurement": "Cmax, peak concentration", "setting": "[1]; [2]", "value": 32.49, "unit": "µg/g"}, {"measurement": "Tmax, peak time", "setting": "[1]; [2]", "value": 0.5, "unit": "h"}, {"measurement": "T1/2, terminal elimination half-life", "setting": "[1]; mouse mammary tissue, single 100 μg/gland intramammary, healthy lactating mice, HPLC–UV, non-compartmental model, three mice (six glands) per time point", "value": 35.11, "unit": "h"}, {"measurement": "tissue distribution after administration by milk duct", "setting": "[1]; mouse, no detection in serum and organs (data not shown)", "value": "only distributed into mammary gland tissues"}, {"measurement": "MIC", "setting": "S. aureus E48", "value": "0.23^a μM"}, {"measurement": "MPC", "setting": "S. agalactiae", "value": 1.82, "unit": "µM"}]}
